Measured values reported in patent publication EP2062893A1, “Fused imidazoles for cancer treatment” (Bayer Schering Pharma AG, priority 2007, dated 2009).
pIC50: −log10 of the molar value.

Legend:
Assay type in all cases: cell-based
phosphorylated GSK3 = assay: Cellular pGSK3 assay (phospho-GSK3 Ser9 sandwich ELISA); conditions: Homo sapiens; MCF7 cells, 48h incubation, IC50 of pGSK3 inhibition
Outline: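 MCF7 cells treated 48 h at 37 °C with compound dilutions from 10 mM DMSO stocks, then lysed. Phospho-GSK3 Ser9 captured in sandwich ELISA, detected with HRP secondary and TMB, absorbance 450 nm; IC50 of pGSK3 inhibition calculated.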

[1] = system: phosphorylated Akt protein; assay: Cellular PI3K / Akt pathway assay (phospho-Akt Ser473 sandwich ELISA); conditions: Homo sapiens; MCF7 cells, ß-Heregulin (20ng/ml) stimulation, 48h incubation
Outline: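 MCF7 cells, serum-starved in 0.1% charcoal-treated FCS medium, were treated with compound alongside 20 ng/ml ß-heregulin stimulation (0.5% DMSO controls). Lysates analysed by phospho-Akt1 Ser473 sandwich ELISA (overnight capture at 4°C, Akt1 detection antibody, HRP/TMB), absorbance at 450 nm.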

OvCAR3 cells = assay: Cellular proliferation / Cytotoxicity assay (Alamar Blue / Resazurin cell viability); conditions: Homo sapiens, OVCAR-3, 48h incubation, read-out: Anti-proliferative / Cytotoxic activity (OvCAR3 cells)
Experimental: Wells containing untreated control cells were filled with 200 µl DMEM (Dulbecco's Modified Eagle Medium) containing 0.5vol% v:v DMSO. The cells are then incubated with the substances for 48h at 37°C in a humidified atmosphere containing 5vol% CO2. To determine the viability of the cells, 20 µl of a Resazurin solution (90mg / I) are added. […] Viabilities are expressed as % values.

pIC50 (phosphorylated GSK3)	pIC50 [1]	Compound	pIC50 (OvCAR3 cells)
5.00 to 6.00	> 6.00	c1ccc(-c2nc(C3CCN(Cc4ccc(-c5nc6ccccn6c5-c5cccs5)cc4)CC3)n[nH]2)nc1 [Example 17, 2-(4-{[4-(5-pyridin-2-yl-1,2,4-triazol-3-yl)piperidin-1-yl]methyl}phenyl)-3-(2-thienyl)imidazo[1,2-a]pyridine]	> 5.00
5.00 to 6.00	5.00 to 6.00	Fc1ccc(-c2c(-c3ccc(CN4CCC(c5n[nH]c(-c6ccccn6)n5)CC4)cc3)nc3ccccn23)cc1 [Example 9, 3-(4-fluorophenyl)-2-(4-{[4-(5-pyridin-2-yl-1,2,4-triazol-3-yl)piperidin-1-yl]methyl}phenyl)imidazo[1,2-a]pyridine]	< 5.00
5.00 to 6.00	> 6.00	COc1ccc2nc(-c3ccc(CN4CCC(c5n[nH]c(-c6ccccn6)n5)CC4)cc3)c(-c3ccccc3)n2n1 [Example 32, 6-methoxy-3-phenyl-2-(4-{[4-(5-pyridin-2-yl-1,2,4-triazol-3-yl)piperidin-1-yl]methyl}phenyl)imidazo[1,2-b]pyridazine]	> 5.00
> 6.00	> 6.00	Brc1cnc2nc(-c3ccc(CN4CCC(c5n[nH]c(-c6ccccn6)n5)CC4)cc3)c(-c3ccccc3)n2c1 [Example 12, 6-bromo-3-phenyl-2-(4-{[4-(5-pyridin-2-yl-1,2,4-triazol-3-yl)piperidin-1-yl]methyl}phenyl)imidazo[1,2-a]pyrimidine]	> 5.00
5.00 to 6.00	> 6.00	Clc1cnc2nc(-c3ccc(CN4CCC(c5n[nH]c(-c6ccccn6)n5)CC4)cc3)c(-c3ccccc3)n2c1 [Example 21, 6-chloro-3-phenyl-2-(4-{[4-(5-pyridin-2-yl-1,2,4-triazol-3-yl)piperidin-1-yl]methyl}phenyl)imidazo[1,2-a]pyrimidine]	> 5.00
< 5.00	5.00 to 6.00	N=C(N)c1cccn2c(-c3ccccc3)c(-c3ccc(CN4CCC(c5n[nH]c(-c6ccccn6)n5)CC4)cc3)nc12 [Example 33, 3-phenyl-2-(4-{[4-(5-pyridin-2-yl-1,2,4-triazol-3-yl)piperidin-1-yl]methyl}phenyl)imidazo[1,2-a]pyridine-8-carboximidamide]	< 5.00
